Data from paper PMC10587737, “Dracorhodin targeting CMPK2 attenuates inflammation: A novel approach to sepsis therapy” (Clinical and Translational Medicine, 2023).

Legend:
CMPK2 [1] = target: T1, CMPK2 (Homo sapiens, UniProt Q5EBM0); test: CMPK2 kinase activity assay (ADP-GLO); type: biochemical
T1 sequence (Q5EBM0 22-449): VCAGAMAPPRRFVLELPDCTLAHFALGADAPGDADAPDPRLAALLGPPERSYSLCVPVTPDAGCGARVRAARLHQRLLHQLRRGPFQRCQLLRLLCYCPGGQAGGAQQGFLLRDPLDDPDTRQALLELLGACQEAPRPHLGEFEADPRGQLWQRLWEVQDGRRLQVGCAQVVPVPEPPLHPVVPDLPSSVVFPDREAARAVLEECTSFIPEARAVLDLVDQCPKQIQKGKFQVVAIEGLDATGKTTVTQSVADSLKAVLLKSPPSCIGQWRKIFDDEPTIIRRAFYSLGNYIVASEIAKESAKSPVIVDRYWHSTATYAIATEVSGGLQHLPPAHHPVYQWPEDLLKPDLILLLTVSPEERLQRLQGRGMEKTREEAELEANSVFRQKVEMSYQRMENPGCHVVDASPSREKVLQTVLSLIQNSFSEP
Experimental: CMPK2 activity was measured by the ADP‐GLO kinase assay according to the guidelines specified in the manufacturer's instructions. In the activity assay, the amount of ADP formed in the CMPK2 reaction was equal to the ATP consumption and proportional to the increase in luminescence generated in the luciferase reaction, which is the experimental principle shown in Figure 1I.

CMPK2 [2] = target: T1, CMPK2; test: Ultrafiltration-affinity mass spectrometry screening (FC, CMPK2 vs BSA); type: binding; set-up: the N‐terminus was truncated by 22 amino acids; 6xHis (C); made in house; host or cells: FreeStyle 293-F cells (pTT5 vector)
Experimental: The purified kinase CMPK2 was incubated with the six cocktails for 30 min at 37°C in a suitable buffer solution. In the compound cocktail, each compound concentration was 1 μM, and the concentration of the kinase CMPK2 was set at 5 μM. Each of the above incubation solutions was added to a 0.5 mL 10 kDa ultrafiltration tube (Amicon μltra‐0.5 10K Centrifugal Filter Devices, Millipore), and four experimental replicates were conducted for each CMPK2 and BSA pair. The 10 kDa ultrafiltration tube was centrifuged with the incubation solution at 13 000 × g for 20 min at 4°C. Centrifugation was stopped when the solution volume was approximately 100 μL, and then the mixture was washed five times with cold ammonium acetate (150 mM, pH 7.5). For affinity selection, 100 μL of the mixture was transferred after centrifugation and rinsed into a new eppendorf tube. […] The protein precipitate was discarded and the liquid was concentrated with a N2 stream. The residue was re‐dissolved in 50% methanol before injection. BSA samples were processed in a manner parallel to that of CMPK2 samples.
Sample measurement was detected by using an UHPLC instrument (Shimadzu) combined with a Triple TOF 5600^+ MS (SCIEX). Chromatographic separation was conducted with an Acquity UPLC BEH C18 column (1.7 μm, 2.1 × 100 mm, Waters) at a temperature maintained at 40°C and a flow rate of 0.3 mL/min, with mobile phases of water–0.1% formic acid (A) and acetonitrile (B). The linear gradient elution profile was as follows: 0−2 min, 5% B; 2−12 min, 5−30% B; 12−25 min, 30−90% B; 25−30 min, 90% B; and re‐equilibration for 5 min. Subsequently, the gradient was recovered to the initial conditions at the final 1 min. Whether it was a test sample or a quality control (QC) sample, each injection volume was 5 μL.
Briefly, the chromatographic peaks of each bound ligand were extracted using PeakView with identification criteria of precise mass measurement deviation and retention time tolerance of 5 ppm and 0.1 min, respectively. The MS response of each ligand was represented with the integrated peak area extracted by the corresponding extract ion chromatogram. The effective hits were selected on the basis of fold change (FC) value ≥ 2, p value < .05 and cyclic voltammetry (CV) ≤ 30% and were identified as candidate ligands of CMPK2. By extracting the m/z of individual standards from the acquired MS/MS spectrum, the decimal point of RT was used to distinguish the ambiguous compound peaks in the cocktails.
The experimental samples were injected into a UHPLC‐Q‐TOF‐MS system. First, total ion chromatograms (TIC) reflected the general overview of all samples (Supporting Information Figure S2A). […] Among the groups, each sample with a CV more than 30% was considered an abnormal sample and was not considered in the subsequent statistical analysis. In addition, the p value of each sample between the groups was calculated by MetaboAnalyst 5.0, and the significance of differences was determined. In the ultrafiltration‐affinity mass spectrometry profiling, we calculated FC, which is defined as the ratio of the MS response between the compound detected in the CMPK2 and BSA incubation system (Supporting Information Figure S2C,D). […] To select small‐molecule ligands with strong affinity, we determined the screening criteria to be FC ≥ 2. Affinity MS analysis generated a set of raw data, and the compounds that met the pre‐judgment criteria (FC ≥ 2, p < .05) were selected as compound hits (Supporting Information Figure S2).

[3] = test system: LPS-induced septic shock in C57BL/6 mice; test: LPS-induced septic shock model; type: in vivo, mouse
Experimental: (§1) Sepsis was induced by intraperitoneal injection of 8- to 12-week-old gender-matched wild-type mice with LPS (E. coli O111:B4, Sigma-Aldrich) at 20 mg per kg body weight. Mouse survival was monitored every 1 h after injection for a total of 72 h. In a separate experiment, mice were treated with the same dose of LPS, and immune sera were collected 6 h post injection. Then, the abdominal cavity was washed with PBS. The levels of IL-1β and TNF-α in serum and peritoneal lavage ﬂuid were determined by ELISA. Then, the livers, kidneys and lungs were immediately removed and washed in ice-cold PBS. They were fixed with 4% paraformaldehyde, which was used for hematoxylin-eosin (H&E), Masson staining and Sirius red staining.

CMPK2 lysine residues = target: T2, CMPK2 lysine residues (Homo sapiens, UniProt Q5EBM0); test: Quantitative lysine reactivity profiling (dimethyl labelling)
T2 construct: the N‐terminus was truncated by 22 amino acids; 6xHis (C); made in house; host or cells: FreeStyle 293-F cells (pTT5 vector)
T2 sequence (Q5EBM0 22-449): T1 sequence (Q5EBM0 22-449)
Experimental: The extent of DP intervention on lysine residues of CMPK2 conformational changes was visualized and the correlation between this effect and the inhibitory potency of the inhibitor was assessed. […] Finally, after the concentration of the active small molecule was fixed, the concentration of the target protein CMPK2 was tested for lysine labelling reactivity according to a gradient of 0.025, 0.05 and 0.1 mg/mL. The range of concentrations used to investigate the effect of small‐molecule ligands on CMPK2 activity was 0.1–150 μM. Each data point contains three biological replicates.
Stable isotope labeling reactions were performed in the active state of the target protein samples. In short, the sample was split into two identical portions. One portion was incubated with DP, and the other was incubated with DMSO vehicle for 30 min at 37℃. Then, mass-differentiated isotopic labeling was performed with heavy (30 mM CD2O, 5 mM NaBH3CN) and light (30 mM CH2O, 5 mM NaBH3CN) labeling reagents. Active isotopic labeling was allowed to proceed for the indicated time, and this experiment allowed incubation for 15 min at 25℃ in the dark. Add 5 M NH4AC and react for 10 min at room temperature to stop the labeling reaction. […] The digested peptide samples were collected by centrifugation, lyophilized, and stored at -80℃ for quantitative proteomic analysis.

[4] = test system: LPS-induced septic shock in Cmpk2^∆DMye mice; test: LPS-induced septic shock in myeloid-specific Cmpk2-deficient mice; type: in vivo, mouse; details: DP 40 mg/kg, LPS 20 mg/kg, 72 h
Experimental: The C57BL/6J mice used in the studies were obtained from the Model Animal Research Center of Shanghai University of Traditional Chinese Medicine. All animals were housed under a 12-hr light/dark cycle at 22-24°C with unrestricted access to food and water for the duration of the experiment except during fasting tests. Myeloid-specific Cmpk2-deficient (Cmpk2^DMye) mice were donated by Prof. Huazhang An from Shandong Provincial Key Laboratory for Rheumatic Disease and Translational Medicine. All animal experiments were approved by the Regional Ethics Committee of Shanghai University of Traditional Chinese Medicine.
as §1

[5] = test system: NLRP3 inflammasome in BMDMs; test: NLRP3 inflammasome activation in LPS-primed BMDMs (ATP/Nigericin; ELISA, immunoblot); type: cell-based, mouse; details: DP 2.5, 5, 10 μM, supernatant
Experimental: Mouse bone marrow cells (isolated from the legs of mice) were cultured in DMEM supplemented with 20% FBS. BMDMs were generated by culturing mouse bone marrow cells in the presence of 20 ng/ml M-CSF-conditioned medium for 7 days. BMDMs were seeded in 6- or 48-well plates overnight in FBS-free DMEM. On day 2, after priming with ultrapure LPS (200 ng/ml) for 4 h, BMDMs (1 × 10^6 cells/ml) were further stimulated with ATP (4 mM) or nigericin (10 μM) for 45 min. Supernatants and cell lysates were collected for ELISA and immunoblot analyses.
The cytokines mouse IL-1β and TNF-α in supernatants from serum, cell culture, and tissue culture were assayed by ELISA kits (R&D Systems, Minneapolis, MN, USA) according to the manufacturer’s instructions.
Cells were lysed in NP-40 buffer containing a protease inhibitor cocktail (Roche, 11836153001) and a phosphatase inhibitor cocktail (Sigma-Aldrich, P5726). Protein concentrations were quantified using a BCA Protein Assay Kit (Beyotime, 5000T P0011). Equal amounts of protein were separated by SDS-PAGE and transferred onto nitrocellulose membranes. The membranes were then incubated with antibodies against CMPK2, NLRP3, ASC, pro-caspase-1, pro-IL-1β, GAPDH, caspase-1 and IL-1β, followed by incubation with the appropriate secondary HRP-conjugated antibodies and development with ECL.

[6] = myeloid tissue, western blot, DP 40 mg/kg
[7] = serum and peritoneal lavage fluid, DP 2 h pre-treatment, 6 h LPS

## COc1c2ccc(-c3ccccc3)oc-2cc(=O)c1C [compound 73, Dracohodin perochlorate]
CMPK2 [1]; 1 mM DP
  CMPK2 activity: completely inhibited
CMPK2 [1]; kinase activity assay, experimental triplicates, read-out: IC50 with respect to CMPK2
  IC50: 1340 nM
CMPK2 [1]; read-out: CMPK2 inhibition
  inhibition at 10 µM: > 50%
CMPK2 [2]; affinity mass spectrometry competition, Figure S3C
  binding between dUMP and CMPK2: interfered
CMPK2 [2]; negative ion mode, ratio of MS response CMPK2 vs BSA
  FC Negative: 3.00
CMPK2 [2]; positive ion mode, ratio of MS response CMPK2 vs BSA
  FC Positive: 4.32
[3]; BIOPAC System-MP160
  blood pressure (hypotension): could improve hypotension
  heart rate: no significant difference
[3]; BP-2010A instrument
  blood pressure changes: not captured significant differences
[3]; DP 40 mg/kg given before or after sepsis outbreak
  survival rate: significantly improved
[3]; DP 10, 20, 40 mg/kg 2 h before LPS 20 mg/kg i.p., 72 h
  survival (lethal inflammation): suppressed the lethal inflammation
[3]; liver, lung, kidney histopathology, DP 10, 20, 40 mg/kg
  LPS-induced inflammatory infiltration and fibrosis: distinctly alleviated
[3]; model group vs drug administration groups
  body weight, body temperature and heart rate: no significant difference
[3]; [6]
  CMPK2 expression in vivo: markedly blocked
  activated caspase-1: prevents the increase
[3]; [7]
  IL-1β production: reduced
  TNF-α production: did not affect
CMPK2 lysine residues; residues K245, K249, K282, K320, K324, K293, K265, K251, K277 and K368
  isotope-labelling ratios of lysine residues: lower than 0.5
CMPK2 lysine residues; residues K393, K433 and K409, DP–CMPK2 co-incubation
  isotope-labelling ratios of lysine residues: approximately 1
[4]
  survival rate: did not further improve
[5]; 12 h before or 1 h after LPS
  lysis of p20 (caspase-1): inhibited
  secretion of p17 (IL-1β): inhibited
[5]
  production of TNF-α: had no effect
